In US8629148B2, “Substituted oxindole-derivatives and the use thereof for the treatment of vasopressin-dependent illnesses” (AbbVie Deutschland GmbH & Co. KG, priority 2007, dated 2014):

Experiments:
[1] = target: T1, recombinant human oxytocin receptors (Homo sapiens, UniProt P30559); test: Oxytocin receptor binding assay (3H-oxytocin, HEK-293 cells); conditions: selectivity quotient, human OT vs human V1b
T1 construct: expressed in transfected cells; host or cells: HEK-293, transient expression; lysed and homogenized cells
T1 sequence (P30559 1-389): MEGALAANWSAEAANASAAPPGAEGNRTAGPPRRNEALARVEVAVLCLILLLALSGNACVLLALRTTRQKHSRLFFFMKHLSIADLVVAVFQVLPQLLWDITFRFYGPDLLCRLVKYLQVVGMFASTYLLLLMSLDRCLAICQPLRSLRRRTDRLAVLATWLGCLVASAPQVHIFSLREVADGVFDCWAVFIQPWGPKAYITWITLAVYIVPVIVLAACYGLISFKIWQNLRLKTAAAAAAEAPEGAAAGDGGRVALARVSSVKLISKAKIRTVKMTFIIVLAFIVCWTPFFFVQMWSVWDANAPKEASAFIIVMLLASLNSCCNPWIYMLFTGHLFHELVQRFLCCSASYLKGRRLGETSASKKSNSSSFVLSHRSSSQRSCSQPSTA
Experimental: The residue was taken up in ice-cold lysis buffer (50 mM Tris-HCl, 10% glycerol, pH 7.4 and Roche complete protease inhibitor) and subjected to an osmotic shock at 4° C. for 20 minutes. The lyzed cells were then centrifuged at 750×g at 4° C. for 20 minutes, the residue was taken up in incubation buffer, and aliquots of 10^7 cells/ml were prepared. The aliquots were frozen at −80° C. until used.
On the day of the experiment, the cells were thawed, diluted with incubation buffer and homogenized using a Multipette Combitip (Eppendorf, Hamburg). […] Triplicate determinations were set up. Bound and free radioligand were separated by filtration under vacuum with Whatman GF/B glass fiber filters with the aid of a Skatron cell harvester 7000. The bound radioactivity was determined by liquid scintillation measurement in a Tricarb Beta counter, model 2000 or 2200CA (Packard).

[2] = target: human vasopressin V1a receptor (Homo sapiens, UniProt P37288); test: Vasopressin V1a receptor binding assay (125I-AVP displacement, CHO-K1 membranes); conditions: selectivity quotient, human V1a vs human V1b
Sequence of human vasopressin V1a receptor (P37288 whole entry): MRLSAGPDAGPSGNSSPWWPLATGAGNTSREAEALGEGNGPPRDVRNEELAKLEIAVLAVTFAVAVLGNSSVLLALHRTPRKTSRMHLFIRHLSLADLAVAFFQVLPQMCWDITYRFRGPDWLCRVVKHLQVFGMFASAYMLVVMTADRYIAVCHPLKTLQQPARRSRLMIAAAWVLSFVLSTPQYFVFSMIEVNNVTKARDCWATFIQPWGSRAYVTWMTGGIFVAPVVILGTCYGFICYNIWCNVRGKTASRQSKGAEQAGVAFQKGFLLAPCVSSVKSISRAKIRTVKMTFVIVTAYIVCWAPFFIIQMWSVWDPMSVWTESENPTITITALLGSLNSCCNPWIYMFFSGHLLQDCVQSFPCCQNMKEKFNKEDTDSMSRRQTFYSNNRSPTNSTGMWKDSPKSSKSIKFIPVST

[3] = target: T2, human vasopressin V1b receptor (Homo sapiens, UniProt P47901); test: Vasopressin V1b receptor binding assay (3H-AVP displacement, CHO-K1 membranes)
T2 construct: expressed in transfected cells; host or cells: CHO-K1 (cell line hV1b_3H2_CHO), membranes
T2 sequence (P47901 1-424): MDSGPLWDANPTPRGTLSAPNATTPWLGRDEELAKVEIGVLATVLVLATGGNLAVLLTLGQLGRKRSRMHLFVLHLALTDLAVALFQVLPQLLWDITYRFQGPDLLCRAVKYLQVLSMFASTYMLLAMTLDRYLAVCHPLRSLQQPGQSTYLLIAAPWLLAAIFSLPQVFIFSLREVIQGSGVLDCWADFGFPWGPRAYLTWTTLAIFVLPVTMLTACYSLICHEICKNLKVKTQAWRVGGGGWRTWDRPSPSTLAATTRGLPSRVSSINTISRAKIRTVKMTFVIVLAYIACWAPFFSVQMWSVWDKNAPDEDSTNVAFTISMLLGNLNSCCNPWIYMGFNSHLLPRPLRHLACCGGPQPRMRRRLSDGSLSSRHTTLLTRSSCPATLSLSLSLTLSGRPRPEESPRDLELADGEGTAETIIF
Experimental: 1. Vasopressin V1b Receptor Binding Assay:
The substance concentration was further diluted 1:5 in the assay mixture (2% DMSO in the mixture).
All determinations were carried out as triplicate determinations.

| Ki(h-OT)/Ki(h-V1b)* [1] | Ki(h-V1a)/Ki(h-V1b)* [2] | Ki [3] [nM] | Compound |
| --- | --- | --- | --- |
| +++ (>75) | +++ (>75) | 1 to 10 | CCOc1ncccc1C1(Nc2ccc(CN3CCN(C)CC3)cc2)C(=O)N(S(=O)(=O)c2ccc(OC)cc2OC)c2ccc(C#N)cc21 (stereo not drawn) [Example 74, 1-(2,4-Dimethoxyphenylsulfonyl)-3-(2-ethoxypyridin-3-yl)-3-[4-(4-methylpiperazin-1-ylmethyl)phenylamino]-2-oxo-2,3-dihydro-1H-indole-5-carbonitrile] |
| +++ (>75) | ++ (25-75) | 10 to 100 | CCOc1ncccc1C1(Nc2ccc(CN3CCN(C)CC3)cc2)C(=O)N(S(=O)(=O)c2ccc(OC)cc2)c2ccc(C#N)cc21 (stereo not drawn) [Example 75, 3-(2-Ethoxypyridin-3-yl)-1-(4-methoxyphenylsulfonyl)-3-[4-(4-methylpiperazin-1-ylmethyl)-phenylamino]-2-oxo-2,3-dihydro-1H-indole-5-carbonitrile] |
| ++ (25-75) | ++ (25-75) | 1 to 10 | COc1ccc(S(=O)(=O)N2C(=O)C(NCc3ccc(N4CCN(C)CC4)cc3)(c3cccnc3OCC(F)(F)F)c3cc(C#N)ccc32)cc1 (stereo not drawn) [Example 77, 1-(4-Methoxyphenylsulfonyl)-3-(2-(2,2,2-trifluoroethoxy)pyridin-3-yl)-3-[4-(4-methylpiperazin-1-yl)benzylamino]-2-oxo-2,3-dihydro-1H-indole-5-carbonitrile] |
| +++ (>75) | ++ (25-75) | 10 to 100 | CCN1CCN(c2ccc(NC3(c4cccnc4OCC(F)F)C(=O)N(S(=O)(=O)c4ccc(OC)cc4)c4ccc(C#N)cc43)cc2)CC1 (stereo not drawn) [Example 79, 3-[4-(4-Ethylpiperazin-1-yl)phenylamino]-1-(4-methoxyphenylsulfonyl)-3-(2-(2,2-difluoroethoxy)pyridin-3-yl)-2-oxo-2,3-dihydro-1H-indole-5-carbonitrile] |
